Source: the supplement of paper PMC10883282
± gives the standard deviation of the averaged measurements.

System: KHOS-240S
Assay: relative viability vs DMSO control (72 h) (fraction); higher = more viable cells
Method in brief: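 Sarcoma cell lines were grown in 384-well plates seeded toward 80–90% confluence and exposed 24 h later to serially diluted compound. After 72 h at 37 °C and 5% CO2, with 0.1% DMSO vehicle and a 5 µM positive control on the plates, ATPLite was read. Relative viability, given as percent growth averaged over up to triplicate wells, was rescaled so that 1 is full and 0 is none.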

SMILES | relative viability (0.00017 µM) | relative viability (0.00051 µM) | relative viability (0.00152 µM) | relative viability (0.00457 µM) | relative viability (0.01372 µM) | relative viability (0.04115 µM) | relative viability (0.1235 µM) | relative viability (0.3704 µM) | relative viability (1.111 µM) | relative viability (3.333 µM) | relative viability (10 µM)
C=CC(=O)Nc1cccc(Oc2nc(Nc3ccc(N4CCN(C)CC4)cc3)nc3ccsc23)c1 [Olmutinib] | 1.01 ± 0.015 | 1.03 ± 0.014 | 1.04 ± 0.018 | 1.02 ± 0.025 | 1.01 ± 0.024 | 1.04 ± 0.011 | 1.03 ± 0.032 | 0.997 ± 0.04 | 0.998 ± 0.035 | 0.865 ± 0.036 | 0.39 ± 0.017
COc1cc2c(Oc3ccc4[nH]c(C)cc4c3F)ncnc2cc1OCCCN1CCCC1 [Cediranib] | 1.06 ± 0.017 | 1.05 ± 0.021 | 1.082 ± 0.0088 | 1.07 ± 0.02 | 1.05 ± 0.013 | 1.03 ± 0.011 | 0.992 ± 0.015 | 0.922 ± 0.022 | 0.908 ± 0.013 | 0.906 ± 0.032 | 0.898 ± 0.015
Cc1cnc(Nc2ccc(OCCN3CCCC3)cc2)nc1Nc1cccc(S(=O)(=O)NC(C)(C)C)c1 [Fedratinib] | 1.07 ± 0.046 | 1.07 ± 0.047 | 1.07 ± 0.033 | 1.06 ± 0.023 | 1.05 ± 0.058 | 1.05 ± 0.094 | 0.989 ± 0.062 | 0.801 ± 0.018 | 0.412 ± 0.031 | 0.103 ± 0.011 | 0.0053 ± 0.0017
CCCS(=O)(=O)Nc1ccc(F)c(C(=O)c2c[nH]c3ncc(-c4ccc(Cl)cc4)cc23)c1F [Vemurafenib] | 1.09 ± 0.063 | 1.07 ± 0.032 | 1.09 ± 0.049 | 1.08 ± 0.024 | 1.08 ± 0.026 | 1.07 ± 0.034 | 1.07 ± 0.033 | 1.07 ± 0.02 | 1.075 ± 0.0032 | 1.01 ± 0.02 | 0.708 ± 0.046
Cn1cnc2c(F)c(Nc3ccc(Br)cc3F)c(C(=O)NOCCO)cc21 [Binimetinib] | 1.03 ± 0.053 | 1.06 ± 0.054 | 1.07 ± 0.067 | 1.06 ± 0.052 | 0.998 ± 0.02 | 0.975 ± 0.027 | 0.922 ± 0.04 | 0.895 ± 0.069 | 0.855 ± 0.0094 | 0.737 ± 0.027 | 0.637 ± 0.045
COc1c(OCCCN2CCOCC2)ccc2c1N=C(NC(=O)c1cnc(N)nc1)N1CCN=C21 [Copanlisib] | 1.09 ± 0.041 | 1.02 ± 0.048 | 1.06 ± 0.013 | 0.922 ± 0.094 | 0.889 ± 0.098 | 0.833 ± 0.09 | 0.714 ± 0.014 | 0.629 ± 0.022 | 0.409 ± 0.018 | 0.217 ± 0.008 | 0.188 ± 0.003
COc1cc2nccc(Oc3ccc(NC(=O)Nc4cc(C)on4)c(Cl)c3)c2cc1OC [Tivozanib] | 1.07 ± 0.061 | 1.07 ± 0.061 | 1.09 ± 0.071 | 1.09 ± 0.059 | 1.08 ± 0.025 | 1.07 ± 0.041 | 1.06 ± 0.018 | 1.045 ± 0.0038 | 1.02 ± 0.042 | 0.908 ± 0.027 | 0.561 ± 0.02
CC[C@H](Nc1ncnc2[nH]cnc12)c1nc2cccc(F)c2c(=O)n1-c1ccccc1 [Idelalisib] | 1.1 ± 0.062 | 1.11 ± 0.064 | 1.11 ± 0.056 | 1.1 ± 0.065 | 1.09 ± 0.071 | 1.08 ± 0.068 | 1.08 ± 0.051 | 1.06 ± 0.078 | 1.03 ± 0.058 | 0.942 ± 0.074 | 0.901 ± 0.079
Cc1cc(C)c(/C=C2\C(=O)Nc3ccccc32)[nH]1 [Semaxanib] | 1.01 ± 0.02 | 1.01 ± 0.032 | 1.01 ± 0.025 | 1.02 ± 0.034 | 0.99 ± 0.01 | 0.966 ± 0.013 | 0.951 ± 0.022 | 0.959 ± 0.024 | 0.844 ± 0.025 | 0.812 ± 0.023 | 0.803 ± 0.024
Cc1ccc(F)c(NC(=O)Nc2ccc(-c3cccc4[nH]nc(N)c34)cc2)c1 [Linifanib] | 1.06 ± 0.02 | 1.08 ± 0.08 | 1.059 ± 0.0094 | 1.07 ± 0.031 | 1.05 ± 0.029 | 1.08 ± 0.041 | 1.03 ± 0.049 | 1.04 ± 0.054 | 1.06 ± 0.043 | 1.04 ± 0.011 | 0.999 ± 0.054
COCc1c(-c2cc3cc(C)cc(OC)c3s2)c2c(N)ncnn2c1CN1CCNC(=O)C1 [Rogaratinib] | 1.04 ± 0.015 | 1.07 ± 0.028 | 1.07 ± 0.046 | 1.07 ± 0.061 | 1.03 ± 0.011 | 0.995 ± 0.053 | 0.9 ± 0.025 | 0.821 ± 0.019 | 0.783 ± 0.045 | 0.671 ± 0.046 | 0.511 ± 0.036
N#CC[C@H](C1CCCC1)n1cc(-c2ncnc3[nH]ccc23)cn1 [Ruxolitinib] | 0.984 ± 0.0066 | 0.984 ± 0.012 | 0.97 ± 0.043 | 0.975 ± 0.025 | 0.95 ± 0.035 | 0.966 ± 0.028 | 0.943 ± 0.037 | 0.912 ± 0.037 | 0.88 ± 0.024 | 0.773 ± 0.037 | 0.583 ± 0.015
CCN1CCN(Cc2ccc(Nc3ncc(F)c(-c4cc(F)c5nc(C)n(C(C)C)c5c4)n3)nc2)CC1 [Abemaciclib] | 1.04 ± 0.038 | 1.07 ± 0.061 | 1.07 ± 0.059 | 1.05 ± 0.039 | 1.04 ± 0.048 | 1 ± 0.077 | 0.892 ± 0.071 | 0.834 ± 0.028 | 0.736 ± 0.024 | 0.7 ± 0.014 | 0.539 ± 0.025
CNC(=O)c1cc(Oc2ccc(NC(=O)Nc3ccc(Cl)c(C(F)(F)F)c3)c(F)c2)ccn1 [Regorafenib] | 1.05 ± 0.055 | 1.09 ± 0.052 | 1.07 ± 0.051 | 1.07 ± 0.053 | 1.1 ± 0.059 | 1.1 ± 0.049 | 1.09 ± 0.04 | 1.04 ± 0.014 | 0.96 ± 0.09 | 0.812 ± 0.045 | 0.5087 ± 0.00089
